These are literature values, as cited in patent US20230035389A1, “ANTIVIRAL COMPOSITION BASED ON EXTRACTS OF […] […] USEFUL FOR TREATING LESIONS CAUSED BY […] VIRUS” (PONTIFICIA UNIVERSIDAD CATOLICA DE CHILE, priority 2019, published 2023).

SMILES strings stand for the structures.

The test system of the data set is herpes simplex virus. As to conditions: topical, background statement.

Turning to `Nc1nc2c(ncn2COCCO)c(=O)[nH]1` [Acyclovir], the “Reduction of the duration of herpetic lesions” value is 1.0 days.
